Test results: publication PMC6037691, “Selenazolyl-hydrazones as Novel Selective MAO Inhibitors With Antiproliferative and Antioxidant Activities: Experimental and In-silico Studies” (Frontiers in Chemistry, 2018)

Assays:
[1] = target: T1, MAO B (Homo sapiens, UniProt P27338); experiment: MAO B inhibition, discontinuous fluorimetric kynuramine assay; type: biochemical; conditions: for inhibition at 1 µM: 1 μM inhibitor, mean ± SD, n = 2, normalized to control
T1 construct: purchased Sigma-Aldrich
T1 sequence (P27338 1-520): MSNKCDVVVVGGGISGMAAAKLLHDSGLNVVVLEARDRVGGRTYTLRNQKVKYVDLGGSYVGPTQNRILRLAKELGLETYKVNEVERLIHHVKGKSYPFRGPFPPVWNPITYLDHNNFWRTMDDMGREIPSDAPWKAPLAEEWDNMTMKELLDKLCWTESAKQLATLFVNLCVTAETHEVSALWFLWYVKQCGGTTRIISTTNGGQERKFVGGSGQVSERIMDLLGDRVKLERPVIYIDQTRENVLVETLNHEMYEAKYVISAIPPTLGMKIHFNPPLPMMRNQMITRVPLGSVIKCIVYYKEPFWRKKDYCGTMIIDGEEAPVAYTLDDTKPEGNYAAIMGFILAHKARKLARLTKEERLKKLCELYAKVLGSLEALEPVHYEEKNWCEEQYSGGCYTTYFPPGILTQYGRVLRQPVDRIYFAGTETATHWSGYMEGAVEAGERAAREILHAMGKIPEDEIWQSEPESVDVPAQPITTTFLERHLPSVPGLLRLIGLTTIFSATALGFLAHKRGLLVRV
Procedure: MAO A and B inhibition capacities were investigated using a discontinuous fluorimetric assay (Meiring et al., [2013]) as described previously by using human recombinant membrane-bound MAO purchased from Sigma-Aldrich (Affini et al., [2018]). Briefly, remained enzyme activity with inhibitor, either 1 μM (one-point) or concentrations ranging from 0.0001 to 10 μM, was assessed in the presence of kynuramine [2 × KM, KM = 20 μM (MAO A), KM = 30 μM (MAO B)] in potassium phosphate buffer (pH 7.4). Reactions were started by addition of enzyme and stopped by manual addition of sodium hydroxide (2 N) after 20 min. Enzyme activity was determined by detection of 4-hydroxyquinoline (λEx = 320 nm, λEm = 405 nm). Data were analyzed using GraphPad PRISM 6. For one-point measurements data were calculated as percentage of control and expressed as mean ± standard deviation (%). […] Data were obtained from two (one-point measurements) or at least three (IC50 values) independent experiments, each performed in duplicates.

[2] = Total reducing power (TRP), modified potassium ferricyanide reduction method; conditions: concentration providing 0.500 of absorbance at 700 nm; mean ± SD, n = 3
Procedure: The mixture containing 0.5 mL of phosphate buffer (0.2 M, pH = 6.6), 0.5 mL of K3[Fe(CN)6] (1%; w/v) and 0.5 mL of the samples (100–1,500 μM) was incubated at 50°C for 20 min. A volume of 0.5 mL of trichloroacetic acid (TCA, 10%; w/v), 0.5 mL of Milli-Q water and 0.5 mL of FeCl3 (0.1%; w/v) was added, followed by intensive vortexing. The absorbance of the resulting mixture was measured after 60 min at 700 nm using phosphate buffer as blank (Oyaizu, [1986]).
(§1) Volume of 0.4 mL of sample solution (50–1,000 μM) was mixed with 1.6 mL of reagent solution [0.6 M H2SO4, 28 mM Na3PO4, and 4 mM (NH4)2MoO4] and resulting mixtures were incubated at 95°C for 90 min. The cooled reaction mixtures were then centrifuged for 10 min (3,000 rpm). The absorbance of the supernatant solution was measured, 1 h after centrifugation, at 695 nm against reagent solution as blank. An increased absorbance in reading in both assays indicated increased antioxidant power, expressed as EC50 values (the sample concentration giving absorbance of 0.500 from the graph of absorbance at 700 nm or 695 nm against compound concentration) (Prieto et al., [1999]).

[3] = test system: SW1573 (non-small cell lung); experiment: Antiproliferative activity, SW1573; type: cell-based, human; conditions: for GI50: Homo sapiens
Procedure: (§2) The in vitro antiproliferative activity of investigated compounds was evaluated against six human solid tumor cell lines: A549 (non-small cell lung), HBL-100, (breast), HeLa (cervix), SW1573 (non-small cell lung), as drug sensitive lines, T-47D (breast) and WiDr (colon) as drug resistant lines. These cell lines were a kind gift from Prof. G. J. Peters (VU Medical Center, Amsterdam, The Netherlands). For selectivity studies, the human fibroblasts BJ-hTert cell line was used, which was obtained from Dr. R. Freire (HUC, Tenerife, Canary Islands). Cells were kept in culture medium under standard conditions: RPMI 1640 medium, fetal bovine serum (5%), glutamine (2 mM), penicillin G (100 units/mL) and streptomycin (0.1 mg/mL). Antiproliferative tests were conducted as described earlier (Skehan et al., [1990]; Miranda et al., [2006]). Tested compounds were dissolved in DMSO at an initial concentration of 40 mM. DMSO was used as negative control (0.25% v/v). Antiproliferative activity of the compounds was expressed as GI50, which is the concentration of the compound that inhibits 50% of the culture growth.

[4] = Total antioxidant capacity (TAOC), modified phosphomolybdenum method; conditions: concentration providing 0.500 of absorbance at 695 nm; mean ± SD, n = 3
Procedure: as §1

[5] = test system: T-47D (breast); experiment: Antiproliferative activity, T-47D; type: cell-based, human
Procedure: as §2

[6] = test system: human fibroblasts BJ-hTert cell line; experiment: Selectivity, non-transformed fibroblasts BJ-hTert; type: cell-based; conditions: Fibroblast; BJ-hTert normal human cell line; concentrations up to 100 μM
Procedure: as §2

[7] = test system: HeLa (cervix); experiment: Antiproliferative activity, HeLa; type: cell-based, human; conditions: for GI50: Homo sapiens
Procedure: as §2

[8] = test system: WiDr (colon); experiment: Antiproliferative activity, WiDr; type: cell-based, human; conditions: for GI50: Homo sapiens
Procedure: as §2

[9] = Oxygen radical absorbance capacity (ORAC) assay; conditions: Trolox equivalents; mean ± SD, n = 3
Procedure: A modification of original protocol was used (Ou et al., [2001]). Stock solutions of fluorescein substrate (5 μM) and free radical generator AAPH (0.5 M) were prepared in 75 mM potassium phosphate buffer (pH = 7.4). Volume of 100 μL of sample solutions or Trolox in DMSO (20 μM) were mixed with 1,485 μL of buffer and 15 μL of fluorescein solution. The 30 min reaction at 37°C was initiated by adding 250 μL of AAPH solution. Fluorescence conditions were as follows: excitation and emission wavelengths 485 and 511 nm, respectively, slits 2 nm. The relative sample ORAC value was expressed as Trolox equivalents (TE).

## C(=NNc1nc(-c2ccccc2)c[se]1)c1ccccc1 [Compound 1, 2-(2-benzylidenehydrazinyl)-4-phenyl-1,3-selenazole]
[1]
  inhibition at 1 µM: 89.4 ± 1.5%
[1]; mean, 95% CI, at least three experiments
  IC50: 0.252 µM
[2]
  EC50: 990 ± 92 µM
[3]
  antiproliferative activity class SW1573: moderate activity (moderate activity (GI50 = 10–100 μM))
  GI50: 24 ± 8 µM
[4]
  EC50: 648 ± 55 µM
[5]; Homo sapiens, T47D
  GI50: 6.4 ± 0.9 µM
[5]; T-47D
  antiproliferative activity class T-47D: good activity (good activity (GI50 = 1–10 μM))
[6]
  GI50: > 100 µM
other
  melting point: 178 to 180 °C
[7]
  antiproliferative activity class HeLa: moderate activity (moderate activity (GI50 = 10–100 μM))
  GI50: 41 ± 9.5 µM
[8]
  antiproliferative activity class WiDr: good activity (good activity (GI50 = 1–10 μM))
  GI50: 4.8 ± 0.8 µM
[9]
  ORAC: 0.75 ± 0.05 TE

## COc1ccc(-c2c[se]c(NN=Cc3ccccc3)n2)cc1 [Compound 1-OMe, 2-(2-benzylidenehydrazinyl)-4-(4-methoxyphenyl)-1,3-selenazole]
[1]
  inhibition at 1 µM: 33 ± 11.6%
[2]
  EC50: 806 ± 85 µM
[3]
  GI50: 42 ± 7.7 µM
[4]
  EC50: 548 ± 53 µM
[5]; Homo sapiens, T47D, T-47D
  GI50: > 100 µM
[6]
  GI50: > 100 µM
other
  melting point: 180 to 182 °C
[7]
  GI50: > 100 µM
[8]
  GI50: > 100 µM
[9]
  ORAC: 0.74 ± 0.06 TE

## O=[N+]([O-])c1ccccc1C=NNc1nc(-c2ccccc2)c[se]1 [Compound 2, 2-(2-(2-nitrobenzylidene)hydrazinyl)-4-phenyl-1,3-selenazole]
[1]
  inhibition at 1 µM: 64.8 ± 6.1%
[2]
  EC50: 390 ± 48 µM
[3]
  antiproliferative activity class SW1573: good activity (good activity (GI50 = 1–10 μM))
  GI50: 5.3 ± 0.6 µM
[4]
  EC50: 357 ± 41 µM
[5]; Homo sapiens, T47D, T-47D
  GI50: ~10 µM
[5]; T-47D
  GI50: 12 ± 1.5 µM
[6]
  GI50: > 100 µM
other
  melting point: 183 to 184 °C
[7]
  antiproliferative activity class HeLa: good activity (good activity (GI50 = 1–10 μM))
  GI50: 6 ± 0.7 µM
[8]
  antiproliferative activity class WiDr: good activity (good activity (GI50 = 1–10 μM))
  GI50: 5 ± 0.9 µM
[9]
  ORAC: 0.82 ± 0.07 TE

## Cc1ccc(-c2c[se]c(NN=Cc3ccccc3[N+](=O)[O-])n2)cc1 [Compound 2-Me, 2-(2-(2-nitrobenzylidene)hydrazinyl)-4-(p-tolyl)-1,3-selenazole]
[1]
  inhibition at 1 µM: 22.1 ± 8.7%
[2]
  EC50: 470 ± 41 µM
[3]
  antiproliferative activity class SW1573: good activity (good activity (GI50 = 1–10 μM))
  GI50: 4.6 ± 1.2 µM
[4]
  EC50: 416 ± 45 µM
[5]; Homo sapiens, T47D, T-47D
  GI50: ~10 µM
[5]; T-47D
  GI50: 13 ± 1.3 µM
[6]
  GI50: > 100 µM
other
  melting point: 170 to 171 °C
[7]
  antiproliferative activity class HeLa: good activity (good activity (GI50 = 1–10 μM))
  GI50: 7.4 ± 1.4 µM
[8]
  antiproliferative activity class WiDr: good activity (good activity (GI50 = 1–10 μM))
  GI50: 8.2 ± 1 µM
[9]
  ORAC: 0.77 ± 0.05 TE

## COc1ccc(-c2c[se]c(NN=Cc3ccccc3[N+](=O)[O-])n2)cc1 [Compound 2-OMe, 4-(4-methoxyphenyl)-2-(2-(2-nitrobenzylidene)hydrazinyl)-1,3-selenazole]
[1]
  inhibition at 1 µM: 35.9 ± 11.2%
[2]
  EC50: 560 ± 53 µM
[3]
  GI50: 46 ± 10 µM
[4]
  EC50: 433 ± 39 µM
[5]; Homo sapiens, T47D, T-47D
  GI50: 36 ± 8.6 µM
[6]
  GI50: > 100 µM
other
  melting point: 165 to 166 °C
[7]
  GI50: 49 ± 12 µM
[8]
  GI50: 22 ± 2.3 µM
[9]
  ORAC: 0.82 ± 0.07 TE

## O=[N+]([O-])c1cccc(C=NNc2nc(-c3ccccc3)c[se]2)c1 [Compound 3, 2-(2-(3-nitrobenzylidene)hydrazinyl)-4-phenyl-1,3-selenazole]
[1]
  inhibition at 1 µM: 57.5 ± 11.4%
[2]
  EC50: 420 ± 45 µM
[3]
  GI50: 16 ± 4.8 µM
[4]
  EC50: 325 ± 38 µM
[5]; Homo sapiens, T47D, T-47D
  GI50: 52 ± 13 µM
[6]
  GI50: > 100 µM
other
  melting point: 216 to 218 °C
[7]
  GI50: 24 ± 7.1 µM
[8]
  GI50: 40 ± 0.6 µM
[9]
  ORAC: 0.90 ± 0.06 TE

## Cc1ccc(-c2c[se]c(NN=Cc3cccc([N+](=O)[O-])c3)n2)cc1 [Compound 3-Me, 2-(2-(3-nitrobenzylidene)hydrazinyl)-4-(p-tolyl)-1,3-selenazole]
[1]
  inhibition at 1 µM: 7.4 ± 27%
[2]
  EC50: 480 ± 50 µM
[3]
  GI50: 18 ± 4.5 µM
[4]
  EC50: 571 ± 45 µM
[5]; Homo sapiens, T47D, T-47D
  GI50: 46 ± 9.7 µM
[6]
  GI50: > 100 µM
other
  melting point: 203 to 206 °C
[7]
  GI50: 31 ± 4 µM
[8]
  GI50: 55 ± 19 µM
[9]
  ORAC: 0.83 ± 0.05 TE
